The compounds below were run against T1, PSMA (Homo sapiens, UniProt Q04609) (assay: Relative binding affinity of DUPA-NIR conjugates versus 100 nM DUPA-FITC (14) on PSMA-positive 22Rv1 human prostate cancer cells, flow cytometry). Details: PSMA-positive 22Rv1 cells, 1 h at 37° C., 100 nM DUPA-FITC competitor.
T1 construct: PSMA-positive 22Rv1 human prostate cancer cells; endogenous in cells; host or cells: 22Rv1 human prostate cancer cells
T1 sequence (Q04609 whole entry): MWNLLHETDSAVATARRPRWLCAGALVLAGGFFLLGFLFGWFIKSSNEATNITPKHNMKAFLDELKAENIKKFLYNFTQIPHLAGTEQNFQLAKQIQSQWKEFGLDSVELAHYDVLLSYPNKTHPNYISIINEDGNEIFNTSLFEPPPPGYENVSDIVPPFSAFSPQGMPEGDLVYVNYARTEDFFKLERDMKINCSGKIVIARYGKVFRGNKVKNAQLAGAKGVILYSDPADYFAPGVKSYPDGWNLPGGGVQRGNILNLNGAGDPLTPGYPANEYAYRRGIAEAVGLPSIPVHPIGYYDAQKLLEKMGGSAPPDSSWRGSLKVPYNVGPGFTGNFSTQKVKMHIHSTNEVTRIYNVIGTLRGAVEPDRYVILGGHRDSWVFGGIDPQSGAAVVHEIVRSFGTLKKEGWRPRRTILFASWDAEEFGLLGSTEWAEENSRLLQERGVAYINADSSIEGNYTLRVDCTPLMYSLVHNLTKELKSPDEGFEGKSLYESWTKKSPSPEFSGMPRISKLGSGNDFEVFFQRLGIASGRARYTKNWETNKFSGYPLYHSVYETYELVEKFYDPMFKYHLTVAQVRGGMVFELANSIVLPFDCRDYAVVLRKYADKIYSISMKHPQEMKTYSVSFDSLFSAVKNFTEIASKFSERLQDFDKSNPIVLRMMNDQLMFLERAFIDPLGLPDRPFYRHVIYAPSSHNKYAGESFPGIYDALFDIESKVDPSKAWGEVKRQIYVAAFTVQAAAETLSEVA
Procedure: (§1) FIG. 3—Relative binding affinities of DUPA-NIR conjugates 1-9 with respect to DUPA-FITC (14). PSMA-positive 22Rv1 human prostate cancer cells were incubated for 1 h at 37° C. in the presence of 100 nM DUPA-FITC with increasing concentrations of DUPA-NIR conjugates. […] Cell bound fluorescence was assayed as using flow cytometry.
as §1, with “6—Relative” for “3—Relative”, “with aromatic amino acids linkers” for “1-9”
as §1, with “14—Relative” for “3—Relative”, “conjugates” for “conjugates 1-9”
PSMA-positive 22Rv1 human prostate cancer cells were incubated for 1 h at 37° C. in the presence of 100 nM DUPA-FITC with increasing concentrations of DUPA-NIR conjugates. […] Cell bound fluorescence was assayed as using flow cytometry.
FIG. 23—Relative binding affinities of DUPA-NIR conjugates with respect to DUPA-FITC (14). […] Cell bound fluorescence was assayed as using flow cytometry.
FIG. 31—Relative binding affinities of DUPA-NIR conjugates with respect to DUPA-FITC (14). […] Cell bound fluorescence was assayed as using flow cytometry.
FIG. 36—Relative binding affinities of PSMA-targeted NIR conjugates with respect to DUPA-FITC (14). […] Cell bound fluorescence was assayed as using flow cytometry.
FIG. 3 Relative binding affinities of DUPA-NIR conjugates 1-9 with respect to DUPA-FITC (14). […] Cell bound fluorescence was assayed as using flow cytometry.
FIG. 24: Relative binding affinities of DUPA-NIR conjugates with respect to DUPA-FITC (14). […] Cell bound fluorescence was assayed as using flow cytometry. […]
With `CC1(C)C(=CC=C2CCOC(C=CC3=[N+](CCCCS(=O)(=O)[O-])c4ccc(S(=O)(=O)O)cc4C3(C)C)=C2c2ccc(C(=O)NCCNC(=O)C(Cc3ccccc3)NC(=O)CCCCCCCNC(=O)CCC(NC(=O)NC(CCC(=O)O)C(=O)O)C(=O)O)cc2)N(CCCCS(=O)(=O)O)c2ccc(S(=O)(=O)O)cc21` (stereo not drawn) [Compound 62] the Kd was 141 nM. For `CC1(C)C(=CC=C2CCCC(C=CC3=[N+](CCCCS(=O)(=O)[O-])c4ccccc4C3(C)C)=C2SCC(NC(=O)C(Cc2ccccc2)NC(=O)C(Cc2ccccc2)NC(=O)CCCCCCCNC(=O)CCC(NC(=O)NC(CCC(=O)O)C(=O)O)C(=O)O)C(=O)O)N(CCCCS(=O)(=O)O)c2ccccc21` (stereo not drawn) [Compound 64], the Kd was 319 nM. With `CC1(C)C(=CC=C2CCCC(C=CC3=[N+](CCCCS(=O)(=O)[O-])c4ccccc4C3(C)C)=C2Oc2ccc(CC(NC(=O)C(CCCNC(=N)N)NC(=O)C(Cc3ccccc3)NC(=O)CCCCCCCNC(=O)CCC(NC(=O)NC(CCC(=O)O)C(=O)O)C(=O)O)C(=O)O)cc2)N(CCCCS(=O)(=O)O)c2ccccc21` (stereo not drawn) [Compound 65] the Kd was 983 nM.
